Measurements reported in patent publication US9557338B2 (SIGNAL PHARMACEUTICALS, LLC, priority 2012, dated 2017).
pIC50: −log10 of the molar value. Read-outs that look alike come from different tables or passages of the source.

Key:
Format in all cases: cell-based
Phospho-p70S6K (T389) = experiment: MSD assay, phospho-p70S6K (T389) in cell lysates
Experimental: Determination of Phospho-p70S6K (T389) in Cell Lysates.
MSD® biomarker detection assays provide a rapid and convenient method for measuring the total and phosphorylated levels of protein targets within a single small-volume sample. In the assay, an antibody for a specific protein target is coated on one electrode (or spot) per well. The samples (cell lysates) are added to the well with a solution containing the detection antibody labeled with an electrochemiluminescent (ECL) compound, MSD SULFOTAG™ label, over the course of one or more incubation periods. The total protein present in the sample binds to the capture antibodies immobilized on the working electrode surface; recruitment of the labeled detection antibody by bound phospho-p70S6K completes the sandwich. MSD Read Buffer that provides the appropriate chemical environment for ECL is added and the plate is read using an MSD SECTOR™ Imager. Inside the SECTOR Imager, a voltage is applied to the plate electrodes which cause the labels bound to the electrode surface to emit light. The instrument measures intensity of the emitted light to afford a quantitative measure of the amount of phosphorylated protein present in the sample.
Cells were plated in 96-well flat bottom plates at the required density determined for each cell line and the cells were allowed to equilibrate at 37° C., 5% CO2 overnight. The following day, the cells were treated with Compound 1 over a range of concentrations for one hour in 5% CO2 at 37° C. After the incubation period, the culture medium was removed carefully with an aspirator. The plate was placed on ice and 50 μL of 1× Tris Lysis Buffer were added to each well. The plate was placed on a shaker at 4° C. for one hour to lyse the cells. At that point, the plate was either frozen at −80° C. for later analysis or immediately assayed for phosphoproteins as described below. To monitor interassay variability, Compound 1 was compared among all plates as a reference standard.
The assay plate was incubated with 150 μL of MSD Blocking Buffer for one hour with shaking at room temperature. The plates were washed 3 times with Tris Wash Buffer. Then 35 μL of cell lysate was added to the wells and incubated for one hour with shaking at room temperature. The solution was removed from the wells and the plate was washed 3 times with wash buffer. Twenty-five microliters of the appropriate antibody solution was then incubated for one hour with shaking at room temperature. The solution was removed from the wells and the plate was washed 3 times with wash buffer. Then 150 μL of 1×MSD Read Buffer T was added to each well. The plate was read on the SECTOR Imager plate reader.

GSK-3β = experiment: MSD assay, GSK-3β phosphorylation in cell lysates
p70S6K = experiment: Luminex multiplex assay, p70S6K phosphorylation in cell lysates; conditions: PC3 cell line; read-out: Luminex p70S6K
From the text: (§1) The multiplex Luminex assay format differs from conventional enzyme-linked immunosorbent assay (ELISA) in that the multiplex capture antibody is attached to a polystyrene bead whereas the ELISA capture antibody is attached to the microplate well. The use of the suspension bead-based technology enables the multiplexing capabilities of the Luminex assays. The xMAP® technology uses 5.6 micron polystyrene microspheres, which are internally dyed with red and infrared fluorophores of differing intensities. Each bead is given a unique number, or bead region, allowing differentiation of one bead from another. Beads covalently bound to different specific antibodies can be mixed in the same assay, utilizing a 96-well microplate format. At the completion of the sandwich immunoassay, beads can be read, using the Luminex 100™ or Luminex 200 detection system, in single-file by dual lasers for classification and quantification of each analyte. The Akt-Pathway Phospho 5-plex kit used was custom made and includes the ability to simultaneously measure p-GSK3β (S9), p-PRAS40(T246), and p-4E-BP1(T46).
(§2) Cells were plated at the required density. The cells were treated with either Compound 1 or rapamycin over a range of concentrations for 1 hour in 5% CO2 at 37° C. Compound 1 and rapamycin were used at the same concentrations as for the proliferation assay. As for the cell proliferation assay, a reference standard was included in the assay for PC3 cells and the coefficient of variation for assay of p-GSK3β(S9) was 37.8% (n=30), p-PRAS40(T246) was 27.8% (n=30) and for p4E-BP1(T46) was 13.5% (n=4). For three cell lines (HCT-116, MDA-MB-231 and HT29) in the assay for phosphorylation of GSK3β, PRAS40 and 4E-BP1, IGF-I stimulation (500 ng/mL, recombinant human IGF-I) for the last 10 min of incubation was used. The media was aspirated from the wells and the plate was placed on ice. Then 35 μL of Lysis Buffer was added to each well and incubated on ice for at least 30 minutes. During the incubation, the standard curve for each phosphoprotein was prepared. The standards provided were reconstituted and serial dilutions were prepared according to the manufacturer's instructions. At the end of the cell lysis step, […] of the lysate was transferred to a V-bottom plate and spun at 4° C. at 2000 rpm for 5 minutes. Both the 1× Luminex bead and 1× detector antibody solutions were prepared during this time. The 1× bead solution was vortexed and 25 μL was added into each well of a black round bottom plate. Then 50 μL of the 1× detector antibody was added to each well. Fifty microliters (50 μL) of the prepared standards were added to the designated wells. Then 25 μL of the assay diluent was added to each well designated for the compound-treated cell lysates. At the end of the spin, 25 μL of cell lysate was added to the corresponding wells of the black assay plate. The assay plate was covered with the white plate lid and incubated for 3 hours at room temperature on an orbital shaker.
(§3) Approximately 10-15 minutes prior to the end of the first incubation, the secondary antibody solution was prepared according to the vendor's protocol. Goat anti-rabbit R-phycoerythrin red fluorescent protein (RPE) supplied as a 10× concentrate was diluted to generate a 1× goat anti-rabbit RPE stock. The 96-well filter plate was pre-wet with 200 μL of 1× Working wash solution. At the end of the 3 hour incubation, a multichannel pipette was used to transfer the entire contents from each assay well into the wells of the filter plate. The liquid from the wells was removed by aspiration with the vacuum manifold. Then 200 μL of 1× Working wash solution was added into each well. The wash solution was aspirated using the vacuum manifold after 15-30 seconds. This wash step was repeated one time. The bottom of the plate was blotted on clean paper towels to remove residual liquid. […]

Phospho-GSK3β(S9) = experiment: Luminex multiplex assay, Phospho-GSK3β(S9); conditions: PC3 cell line; read-out: Luminex GSK-3β
From the text: (§4) Determination of Phospho-GSK3β(S9), Phospho-PRAS40(T246) and Phospho-4E-BP1(T46) and the Effect of Compound 1 or Rapamycin.
as §1, §2, §3

Phospho-PRAS40(T246) = experiment: Luminex multiplex assay, Phospho-PRAS40(T246); conditions: PC3 cell line; read-out: Luminex PRAS40
From the text: as §4, §1, §2, §3

[1] = PC3 cell line, read-out: MSD GSK-3β
[2] = PC3 cell line, read-out: MSD p70S6K

SMILES | pIC50 (p70S6K) | pIC50 (Phospho-GSK3β(S9)) | pIC50 (Phospho-PRAS40(T246)) | also measured
CO[C@H]1CC[C@H](N2C(=O)CNc3ncc(-c4ccc(-c5nnc[nH]5)nc4C)nc32)CC1 [A-11, 1-((1r,4r)-4-methoxycyclohexyl)-7-(2-methyl-6-(4H-1,2,4-triazol-3-yl)pyridin-3-yl)-3,4-dihydropyrazino[2,3-b]pyrazin-2(1H)-one] | – | – | – | pIC50 (Phospho-p70S6K (T389); HCT116 cell line, IGF, read-out: MSD p70S6K (IGF)): 6.80; pIC50 (Phospho-p70S6K (T389); U87MG cell line, read-out: MSD p70S6K): 7.03; pIC50 (GSK-3β; HCT116 cell line, IGF, read-out: MSD GSK-3β (IGF)): 6.69; pIC50 (GSK-3β; U87MG cell line, read-out: MSD GSK-3β): 6.32
CCN1C(=O)CNc2ncc(-c3ccc(-c4nnc[nH]4)nc3C)nc21 [A-12, 1-ethyl-7-(2-methyl-6-(4H-1,2,4-triazol-3-yl)pyridin-3-yl)-3,4-dihydropyrazino[2,3-b]pyrazin-2(1H)-one] | – | – | – | pIC50 (Phospho-p70S6K (T389); Homo sapiens, HCT-116, HCT116 cell line, IGF, read-out: MSD p70S6K (IGF)): 6.07; pIC50 (Phospho-p70S6K (T389); Homo sapiens, U-87 MG, U87MG cell line, read-out: MSD p70S6K): 6.60; pIC50 (GSK-3β; Homo sapiens, HCT-116, HCT116 cell line, IGF, read-out: MSD GSK-3β (IGF)): < 5.70; pIC50 (GSK-3β; Homo sapiens, U-87 MG, U87MG cell line, read-out: MSD GSK-3β): < 5.70
N#Cc1cccc(-c2cnc3c(n2)N(CCC2CCOCC2)CC(=O)N3)c1 [C-83] | < 5.82 | < 5.82 | < 5.82 | –
NC(=O)c1cccc(-c2cnc3c(n2)N(CCC2CCOCC2)CC(=O)N3)c1 [C-84] | < 5.82 | < 5.82 | < 5.82 | –
CC(C)(O)c1ccc(-c2cnc3c(n2)N(Cc2cccc(C#N)c2)C(=O)CN3)cn1 [C-85] | 7.57 | 7.52 | 6.86 | –
COCCN1CC(=O)Nc2ncc(-c3cnc(C(N)=O)cc3C)nc21 [C-86] | 6.51 | 6.03 | < 5.82 | –
O=C1CN(CCC2CCOCC2)c2nc(-c3cccc(-c4ncn[nH]4)c3)cnc2N1 [C-87] | 6.04 | < 5.82 | < 5.82 | –
COCCN1CC(=O)Nc2ncc(-c3cnc(-c4ncn[nH]4)cc3C)nc21 [C-88] | 8.52 | 8.10 | 7.64 | –
COC1CCC(CN2C(=O)CNc3ncc(-c4cnc(C(N)=O)cc4C)nc32)CC1 (centres unmarked) [C-89] | 6.99 | 6.07 | 5.99 | –
NC(=O)c1cccc(-c2cnc3c(n2)N(CCC2CCOCC2)C(=O)CN3)c1 [C-90] | 5.88 | < 5.82 | < 5.82 | –
COC1CCC(CN2C(=O)CNc3ncc(-c4cnc(-c5nc[nH]n5)cc4C)nc32)CC1 (centres unmarked) [C-91] | 8.70 | 8.40 | 8.15 | –
Cc1nc(-c2nnc[nH]2)ccc1-c1cnc2c(n1)N(Cc1cccc(C#N)c1)C(=O)CN2 [C-92] | 9.00 | 8.10 | 8.05 | –
O=C1CNc2ncc(-c3cn[nH]c3)nc2N1CCC1CCOCC1 [C-94] | 6.68 | < 5.82 | < 5.82 | –
COC1CCC(CN2C(=O)CNc3ncc(-c4cnc(C(N)=O)cc4C)nc32)CC1 (centres unmarked) [C-95] | 7.54 | 6.63 | 6.51 | –
Cc1cc(C(N)=O)ncc1-c1cnc2c(n1)N(CC1CCOCC1)C(=O)CN2 [C-96] | 6.89 | 6.14 | 6.04 | –
CCN1C(=O)CNc2ncc(-c3ccc4cn[nH]c4c3)nc21 [C-97] | < 5.82 | < 5.82 | < 5.82 | –
COC1CCC(N2C(=O)CNc3ncc(-c4ccc(C(C)(C)O)[n+]([O-])c4)nc32)CC1 (centres unmarked) [C-98] | 6.08 | < 5.82 | < 5.82 | –
Cc1nc(-c2nnc[nH]2)ccc1-c1cnc2c(n1)N(C)C(=O)CN2 [C-99] | 7.96 | 6.46 | 6.56 | –
Nc1ccc(-c2cnc3c(n2)N(CCC2CCOCC2)C(=O)CN3)cn1 [C-100] | 7.82 | 6.22 | 6.25 | –
O=C1CNc2ncc(-c3ccncc3)nc2N1CCC1CCOCC1 [C-101] | 6.33 | < 5.82 | < 5.82 | –
Cc1cc(-c2nc[nH]n2)ncc1-c1cnc2c(n1)N(C(C)C)C(=O)CN2 [C-121] | – | – | – | pIC50 (GSK-3β; [1]): 7.82
O=C1CNc2ncc(-c3ccc(-c4nc[nH]n4)nc3)nc2N1CC1CCC(O)CC1 (centres unmarked) [C-141] | – | – | – | pIC50 (Phospho-p70S6K (T389); [2]): 7.38
COC1CCC(CN2CC(=O)Nc3ncc(-c4ccc(-c5ncn[nH]5)nc4)nc32)CC1 (centres unmarked) [C-156] | – | – | – | pIC50 (Phospho-p70S6K (T389); [2]): 8.00
Cc1cc(-c2nc[nH]n2)c(F)cc1-c1cnc2c(n1)N(CC1CCC(O)CC1)CC(=O)N2 (centres unmarked) [C-157] | – | – | – | pIC50 (Phospho-p70S6K (T389); [2]): 7.43
COC1CCC(CN2CC(=O)Nc3ncc(-c4ccc(-c5nc[nH]n5)nc4)nc32)CC1 (centres unmarked) [C-158] | – | – | – | pIC50 (Phospho-p70S6K (T389); [2]): 7.44
CO[C@H]1CC[C@@H](CN2C(=O)CNc3ncc(-c4ccc(-c5nc[nH]n5)nc4)nc32)CC1 [C-165] | – | – | – | pIC50 (GSK-3β; [1]): 8.52

Continued, in another order:

pIC50 (p70S6K) | pIC50 (Phospho-GSK3β(S9)) | pIC50 (Phospho-PRAS40(T246)) | SMILES | also measured
< 5.82 | < 5.82 | < 5.82 | CCN1C(=O)CNc2ncc(-c3cccc4[nH]ncc34)nc21 [C-102] | –
> 8.82 | 6.77 | 6.97 | COCCN1C(=O)CNc2ncc(-c3cnc4[nH]ccc4c3)nc21 [C-104] | –
6.60 | < 5.82 | < 5.82 | COc1ccc(-c2cnc3c(n2)N(CCC2CCOCC2)C(=O)CN3)cn1 [C-105] | –
< 5.82 | < 5.82 | < 5.82 | O=C1CNc2ncc(-c3cncnc3)nc2N1CCC1CCOCC1 [C-106] | –
6.84 | < 5.82 | < 5.82 | COCCN1C(=O)CNc2ncc(-c3ccc4cn[nH]c4c3)nc21 [C-107] | –
8.30 | 7.43 | 7.51 | COC1CCC(N2CC(=O)Nc3ncc(-c4ccc(-c5nc[nH]n5)c(F)c4C)nc32)CC1 (centres unmarked) [C-108] | –
6.44 | < 5.82 | < 5.82 | COCCN1C(=O)CNc2ncc(-c3cccc4[nH]ncc34)nc21 [C-109] | –
